Experimental data published in ChEMBL document CHEMBL1921674, “Novel tricyclic inhibitors of IKK2: discovery and SAR leading to the identification of 2-methoxy-N-((6-(1-methyl-4-(methylamino)-1,6-dihydroimidazo[4,5-d]pyrrolo[2,3-b]pyridin-7-yl)pyridin-2-yl)methyl)acetamide (BMS-066)” (Bioorg Med Chem Lett, 2011).
Activity calls are given as the source filed them. The rule behind the calls is not given here.

Experiments:
Mus musculus [1] = experiment: Reduction in TNBS-induced colitis in mouse […] model assessed as decrease in tissue damage at 10 mg/kg administered intrarectally 1 day before TNBS challenge twice daily for 4 days by hematoxylin-eosin staining relative to control; assay type: functional, organism-based; set-up: dose 10 mg/kg
Ephrin type-A receptor 1 = Ephrin type-A receptor 1 (Homo sapiens, UniProt P21709); experiment: Inhibition of EPHA1
Ephrin type-A receptor 1, sequence (P21709 whole entry): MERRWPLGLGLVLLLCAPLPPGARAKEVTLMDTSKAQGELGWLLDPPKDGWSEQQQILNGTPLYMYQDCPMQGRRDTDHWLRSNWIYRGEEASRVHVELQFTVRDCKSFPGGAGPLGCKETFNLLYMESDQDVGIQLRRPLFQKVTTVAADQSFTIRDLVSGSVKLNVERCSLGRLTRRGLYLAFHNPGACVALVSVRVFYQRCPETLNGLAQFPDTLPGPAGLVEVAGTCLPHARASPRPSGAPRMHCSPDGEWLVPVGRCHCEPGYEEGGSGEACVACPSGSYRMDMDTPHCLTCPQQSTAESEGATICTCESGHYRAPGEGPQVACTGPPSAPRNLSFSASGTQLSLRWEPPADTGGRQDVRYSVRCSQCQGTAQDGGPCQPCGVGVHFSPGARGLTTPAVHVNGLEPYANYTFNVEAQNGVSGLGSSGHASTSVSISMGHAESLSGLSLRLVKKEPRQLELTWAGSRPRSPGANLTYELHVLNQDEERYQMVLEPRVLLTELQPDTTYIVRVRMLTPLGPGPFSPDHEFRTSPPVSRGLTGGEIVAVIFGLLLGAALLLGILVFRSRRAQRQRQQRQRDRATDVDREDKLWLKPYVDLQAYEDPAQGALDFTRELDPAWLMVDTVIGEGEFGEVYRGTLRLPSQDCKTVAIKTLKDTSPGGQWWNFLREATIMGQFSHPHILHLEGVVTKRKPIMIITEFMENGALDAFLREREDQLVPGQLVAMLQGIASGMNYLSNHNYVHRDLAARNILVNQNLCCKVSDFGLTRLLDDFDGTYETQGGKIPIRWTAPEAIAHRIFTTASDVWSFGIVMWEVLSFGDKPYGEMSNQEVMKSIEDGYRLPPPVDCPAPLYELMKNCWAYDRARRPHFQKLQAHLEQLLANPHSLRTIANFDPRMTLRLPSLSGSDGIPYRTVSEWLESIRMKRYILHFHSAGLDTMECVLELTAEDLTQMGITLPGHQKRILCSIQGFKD

[2] = Half life in dog at 1 mg/kg, iv; assay type: ADME, organism-based, Canis lupus familiaris; set-up: dose 1 mg/kg, route intravenous; conditions: in vivo
[3] = biological target: Vascular endothelial growth factor receptor 2 (Homo sapiens, UniProt P35968); conditions: 10 uM
Vascular endothelial growth factor receptor 2, sequence (P35968 whole entry): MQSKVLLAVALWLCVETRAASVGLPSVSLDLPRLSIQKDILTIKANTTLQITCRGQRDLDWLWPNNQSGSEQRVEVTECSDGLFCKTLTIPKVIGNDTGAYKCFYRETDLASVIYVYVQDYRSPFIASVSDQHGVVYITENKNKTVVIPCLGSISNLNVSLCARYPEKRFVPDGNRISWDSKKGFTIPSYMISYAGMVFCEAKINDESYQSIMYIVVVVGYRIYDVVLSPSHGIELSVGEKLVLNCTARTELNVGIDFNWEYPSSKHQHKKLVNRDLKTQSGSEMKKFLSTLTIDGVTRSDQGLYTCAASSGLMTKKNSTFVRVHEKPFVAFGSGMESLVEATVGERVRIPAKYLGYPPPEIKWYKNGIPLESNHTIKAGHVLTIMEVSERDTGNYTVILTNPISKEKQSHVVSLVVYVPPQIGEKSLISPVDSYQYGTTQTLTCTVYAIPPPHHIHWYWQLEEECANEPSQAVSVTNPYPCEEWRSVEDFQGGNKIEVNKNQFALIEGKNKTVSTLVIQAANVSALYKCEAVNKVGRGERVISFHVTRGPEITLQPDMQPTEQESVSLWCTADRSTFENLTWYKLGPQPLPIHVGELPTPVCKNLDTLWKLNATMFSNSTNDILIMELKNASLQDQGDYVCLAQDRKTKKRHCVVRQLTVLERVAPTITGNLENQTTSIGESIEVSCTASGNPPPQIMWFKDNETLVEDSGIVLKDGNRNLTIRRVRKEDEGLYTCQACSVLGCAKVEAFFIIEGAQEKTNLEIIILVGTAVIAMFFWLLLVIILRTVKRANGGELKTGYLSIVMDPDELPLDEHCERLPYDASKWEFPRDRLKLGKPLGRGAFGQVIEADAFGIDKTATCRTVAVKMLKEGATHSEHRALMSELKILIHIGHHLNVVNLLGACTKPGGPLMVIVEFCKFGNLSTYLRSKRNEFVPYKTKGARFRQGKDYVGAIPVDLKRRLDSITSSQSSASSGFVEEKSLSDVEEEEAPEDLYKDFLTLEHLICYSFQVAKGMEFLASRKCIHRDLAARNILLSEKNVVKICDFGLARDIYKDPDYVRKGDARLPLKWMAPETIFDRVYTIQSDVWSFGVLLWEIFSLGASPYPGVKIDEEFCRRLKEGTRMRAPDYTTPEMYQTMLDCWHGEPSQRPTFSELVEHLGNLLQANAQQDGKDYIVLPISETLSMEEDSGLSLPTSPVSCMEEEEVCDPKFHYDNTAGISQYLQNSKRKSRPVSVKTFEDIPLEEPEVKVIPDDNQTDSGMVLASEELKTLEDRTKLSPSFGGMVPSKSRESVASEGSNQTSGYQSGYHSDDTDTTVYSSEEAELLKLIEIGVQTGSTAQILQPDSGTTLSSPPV
Description: Inhibition of KDR at 10 uM

[4] = Volume of distribution at steady state in mouse at 2 mg/kg, iv; assay type: ADME, organism-based; set-up: dose 2 mg/kg, route intravenous; conditions: in vivo, read-out: Vdss
Cytochrome P450 3A4 = Cytochrome P450 3A4 (Homo sapiens, UniProt P08684); experiment: Inhibition of CYP3A4; assay type: ADME
Cytochrome P450 3A4, sequence (P08684 whole entry): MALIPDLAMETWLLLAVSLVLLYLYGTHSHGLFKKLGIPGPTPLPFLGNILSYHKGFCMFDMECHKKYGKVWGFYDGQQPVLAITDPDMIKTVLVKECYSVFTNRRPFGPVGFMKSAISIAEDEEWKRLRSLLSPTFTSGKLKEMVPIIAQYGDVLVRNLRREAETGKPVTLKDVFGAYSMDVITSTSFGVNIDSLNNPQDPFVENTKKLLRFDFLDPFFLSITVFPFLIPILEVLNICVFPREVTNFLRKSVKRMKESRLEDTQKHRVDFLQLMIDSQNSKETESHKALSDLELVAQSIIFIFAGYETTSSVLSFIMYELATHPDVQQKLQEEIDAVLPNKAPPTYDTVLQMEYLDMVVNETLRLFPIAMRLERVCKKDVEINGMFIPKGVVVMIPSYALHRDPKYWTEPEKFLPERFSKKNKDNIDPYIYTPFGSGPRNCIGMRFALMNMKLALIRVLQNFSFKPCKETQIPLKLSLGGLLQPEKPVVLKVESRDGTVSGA

[5] = Cmax in Lewis rat at 10 mg/kg, po; assay type: ADME, organism-based; set-up: dose 10 mg/kg, route oral; conditions: in vivo
[6] = biological target: Proto-oncogene tyrosine-protein kinase receptor Ret (Homo sapiens, UniProt P07949); experiment: Inhibition of RET
Proto-oncogene tyrosine-protein kinase receptor Ret, sequence (P07949 whole entry): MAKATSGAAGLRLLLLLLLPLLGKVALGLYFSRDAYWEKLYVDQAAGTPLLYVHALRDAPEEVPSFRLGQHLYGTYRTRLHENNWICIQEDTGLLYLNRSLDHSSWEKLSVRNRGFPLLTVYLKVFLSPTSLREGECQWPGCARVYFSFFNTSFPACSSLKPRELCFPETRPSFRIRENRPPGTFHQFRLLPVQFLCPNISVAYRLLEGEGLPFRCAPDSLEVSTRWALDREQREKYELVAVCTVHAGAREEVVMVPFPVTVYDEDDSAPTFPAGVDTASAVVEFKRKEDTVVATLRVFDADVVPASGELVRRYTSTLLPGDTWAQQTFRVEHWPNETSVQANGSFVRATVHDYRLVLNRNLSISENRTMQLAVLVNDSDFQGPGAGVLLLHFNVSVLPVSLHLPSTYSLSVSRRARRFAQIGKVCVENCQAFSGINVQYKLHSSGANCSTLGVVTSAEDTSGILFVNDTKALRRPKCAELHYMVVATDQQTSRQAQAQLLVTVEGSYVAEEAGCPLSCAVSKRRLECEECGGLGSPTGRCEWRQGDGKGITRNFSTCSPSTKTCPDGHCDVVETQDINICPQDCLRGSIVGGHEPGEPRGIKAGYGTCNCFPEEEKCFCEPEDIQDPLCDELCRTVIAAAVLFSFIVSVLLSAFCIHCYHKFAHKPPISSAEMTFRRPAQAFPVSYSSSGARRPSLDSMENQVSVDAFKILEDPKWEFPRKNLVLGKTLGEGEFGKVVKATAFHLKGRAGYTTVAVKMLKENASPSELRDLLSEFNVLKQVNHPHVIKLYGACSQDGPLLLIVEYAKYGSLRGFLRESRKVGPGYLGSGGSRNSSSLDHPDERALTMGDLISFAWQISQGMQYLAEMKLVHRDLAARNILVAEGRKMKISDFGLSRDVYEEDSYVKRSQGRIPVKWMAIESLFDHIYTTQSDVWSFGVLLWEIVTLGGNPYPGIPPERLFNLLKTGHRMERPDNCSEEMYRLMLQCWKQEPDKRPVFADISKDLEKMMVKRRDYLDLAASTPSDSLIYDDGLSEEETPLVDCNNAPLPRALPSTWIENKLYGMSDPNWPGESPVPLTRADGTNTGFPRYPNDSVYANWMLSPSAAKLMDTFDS

Mus musculus [7] = experiment: Reduction in TNBS-induced colitis in mouse […] model assessed as decrease in inflammation histological score at 10 mg/kg administered intrarectally 1 day before TNBS challenge twice daily for 4 days by hematoxylin-eosin staining relative to control; assay type: functional, organism-based; set-up: dose 10 mg/kg
Blood [8] = experiment: Antiinflammatory activity in human whole blood assessed as inhibition of LPS-induced TNFalpha release treated for 45 mins before LPS challenge measured after 6 hrs by ELISA; assay type: functional, tissue-based; conditions: Homo sapiens, Blood
Mus musculus [9] = experiment: Reduction in TNBS-induced colitis in mouse […] model assessed as decrease of colon length at 3 mg/kg, administered intrarectally 1 day before TNBS challenge twice daily for 4 days; assay type: functional
[10] = biological target: Vascular endothelial growth factor receptor 3 (Homo sapiens, UniProt P35916); experiment: Inhibition of FLT4 at 10 uM
[11] = Protein binding in human serum; assay type: ADME, cell-free; conditions: read-out: PB (converted)
[12] = biological target: Ephrin type-B receptor 1 (Homo sapiens) (UniProt P54762); experiment: Inhibition of EphB1 at 10 uM
Ephrin type-B receptor 1 (Homo sapiens), sequence (P54762 whole entry): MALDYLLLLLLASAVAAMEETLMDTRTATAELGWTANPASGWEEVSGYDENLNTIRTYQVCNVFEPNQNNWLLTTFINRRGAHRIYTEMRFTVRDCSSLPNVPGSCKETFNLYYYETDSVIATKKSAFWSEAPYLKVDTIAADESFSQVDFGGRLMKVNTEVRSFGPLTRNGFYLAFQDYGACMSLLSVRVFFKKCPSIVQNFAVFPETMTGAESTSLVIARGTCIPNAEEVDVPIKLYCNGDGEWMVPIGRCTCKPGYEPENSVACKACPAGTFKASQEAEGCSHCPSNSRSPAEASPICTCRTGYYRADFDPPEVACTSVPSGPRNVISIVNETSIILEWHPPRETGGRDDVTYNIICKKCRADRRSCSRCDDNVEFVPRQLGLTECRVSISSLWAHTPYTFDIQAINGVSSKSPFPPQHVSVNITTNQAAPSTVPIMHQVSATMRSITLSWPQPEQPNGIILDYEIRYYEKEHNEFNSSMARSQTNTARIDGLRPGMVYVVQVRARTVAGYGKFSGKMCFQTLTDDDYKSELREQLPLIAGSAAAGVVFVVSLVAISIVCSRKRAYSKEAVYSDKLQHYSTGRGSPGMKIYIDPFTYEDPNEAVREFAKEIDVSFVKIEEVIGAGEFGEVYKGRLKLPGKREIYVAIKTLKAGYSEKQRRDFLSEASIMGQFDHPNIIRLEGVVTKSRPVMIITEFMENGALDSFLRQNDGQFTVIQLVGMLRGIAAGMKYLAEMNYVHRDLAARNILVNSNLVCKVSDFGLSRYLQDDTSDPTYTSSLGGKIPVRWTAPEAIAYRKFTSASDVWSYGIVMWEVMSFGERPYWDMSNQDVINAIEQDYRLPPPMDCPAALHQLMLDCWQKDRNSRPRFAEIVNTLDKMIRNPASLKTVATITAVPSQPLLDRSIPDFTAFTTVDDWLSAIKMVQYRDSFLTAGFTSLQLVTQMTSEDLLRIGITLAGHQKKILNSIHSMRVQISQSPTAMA

Blood [13] = experiment: Antiinflammatory activity in mouse whole blood assessed as inhibition of LPS-induced TNFalpha release treated for 45 mins before LPS challenge measured after 6 hrs by ELISA; assay type: functional, tissue-based
[14] = AUC in dog at 5 mg/kg, po; assay type: ADME, organism-based, Canis lupus familiaris; set-up: dose 5 mg/kg, route oral; conditions: plasma
[15] = biological target: Inhibitor of nuclear factor kappa-B kinase subunit alpha (Homo sapiens, UniProt O15111); experiment: Inhibition of IKK1
[16] = Protein binding in mouse serum; assay type: ADME, cell-free; conditions: read-out: PB (converted)
[17] = biological target: Inhibitor of nuclear factor kappa-B kinase subunit beta (Homo sapiens) (UniProt O14920); experiment: Inhibition of human IKK2 at 10 uM

IC50 (Ephrin type-A receptor 1): 686 nM | half-life [2]: 3.3 h | inhibition [3]: > 75% | Vd [4]: 1.8 L/kg | IC50 (Cytochrome P450 3A4): > 40000 nM | Cmax [5]: 17.6 µM | IC50 [6]: 614 nM | IC50 (Blood [8]): 1000 nM | inhibition [10]: > 75% | fraction unbound [11]: 0.074 | inhibition [12]: > 75% | IC50 (Blood [13]): 1200 nM | AUC [14]: 50 µM·h | IC50 [15]: 4960 nM | fraction unbound [16]: 0.084 | inhibition [17]: > 75%
Compound: CNc1nc2[nH]c(-c3cccc(CNC(=O)COC)n3)cc2c2c1ncn2C
Activity (Mus musculus [1]): Active | Activity (Mus musculus [7]): Active | Activity (Mus musculus [9]): 1 cm
